# Source: patent publication US20240148821A1, “PHARMACEUTICAL USE OF CYCLIC PEPTIDE COMPOUND” (CHUGAI SEIYAKU KABUSHIKI KAISHA, priority 2021, published 2024)
# Numbered stars: 1 amine (or outer) side, 2 acyl side, 3 side chain; on linkers, the order of the positions; unused ones are H or OH. Bridge positions count the residues as written; N and C are the ends. Square brackets hold non-standard residues; d marks the D form. Peptide text beside a SMILES is read from it. * marks the point of attachment. hPhe(3,5-F2-4-CF3) = N[C@@H](CCc1cc(F)c(C(F)(F)F)c(F)c1)C(=O)O; hPhe(3-Cl-4-CF3) = N[C@@H](CCc1ccc(C(F)(F)F)c(Cl)c1)C(=O)O; hPhe(3-F,4-CF3) = N[C@@H](CCc1ccc(C(F)(F)F)c(F)c1)C(=O)O; X20 = Cc1cncc(C[C@@H](C(=O)[*:2])N(C)[*:1])c1; NMePhe(4-Cl) = CN[C@@H](Cc1ccc(Cl)cc1)C(=O)O; NMePhe(4-Me) = CN[C@@H](Cc1ccc(C)cc1)C(=O)O; NMedβ3hAla = C[C@H](CC(=O)[*:2])N(C)[*:1]; NMeAla(cPent) = CN[C@@H](CC1CCCC1)C(=O)O; NMeGly(cPent) = CN[C@H](C(=O)O)C1CCCC1; NMeCha = CN[C@@H](CC1CCCCC1)C(=O)O; Hyp = O=C(O)[C@@H]1C[C@@H](O)CN1; NMeChg = CN[C@H](C(=O)O)C1CCCCC1; NMeD = CN[C@@H](CC(=O)O)C(=O)O; NMeL = CN[C@@H](CC(C)C)C(=O)O; NMeV = CN[C@H](C(=O)O)C(C)C; Azetidin(1-yl) = C1CN(*)C1; Morpholide = C1CN(*)CCO1; NMeA = CN[C@@H](C)C(=O)O; NMeAib = CNC(C)(C)C(=O)O; Piperidide = C1CCN(*)CC1; Pyrrolidide = C1CCN(*)C1; Ac5c = NC1(C(=O)O)CCCC1; Aze = O=C(O)[C@@H]1CCN1; NEtG = CCNCC(=O)O; Sar = CNCC(=O)O
# How the values were obtained:
# [1] = molecular target: protein-protein interaction between Kras and SOS1 (biotin-tagged human Kras loaded with GDP, His-tagged human SOS1) (Homo sapiens (Human), UniProt P01116, G12D); assay: Protein-protein interaction inhibition between Kras and SOS1 (KrasG12D-SOS PPI) using AlphaScreen; type: biochemical; conditions: AlphaScreen; biotin-tagged human Kras loaded with GDP, His-tagged human SOS1; read-out: KRAS G12D-SOS PPI IC50;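 note: kras produced in E. coli, Ni-coupled donor beads and streptavidin acceptor beads, excitation 680 nm with emission detected at 520–620 nm via singlet oxygen transfer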
# [2] = tested on: Human pancreatic cancer cell line AsPC-1 (G12D mutation Kras); assay: AsPC-1 cell growth inhibition (AsPC-1 CGI); type: cell-based; conditions: read-out: AsPC-1 cell growth inhibition, 50% growth inhibitory concentration (IC50 value); 96 hours, CellTiter-Glo, values classified in ranges
SMILES,IC50 [1] [nM],IC50 [2] [nM]
"CC(C)C[C@@H]1NC(=O)C(C)(C)N(C)C(=O)[C@H](CC(C)C)NC(=O)[C@H](CCc2ccc(C(F)(F)F)c(F)c2)NC(=O)CN(C)C(=O)[C@H](Cc2ccc(Cl)cc2)N(C)C(=O)CN(C)C(=O)CN(C)C(=O)[C@H](C(C)C)NC(=O)[C@H](CC(C)C)N(C)C(=O)C[C@@H](C)N(C)C1=O [Compound 956] (cyclo(L[NMeAib]L[NMedβ3hAla][NMeL]V[Sar][Sar][NMePhe(4-Cl)][Sar][hPhe(3-F,4-CF3)]))",80,> 500
"CCO[C@@H]1C[C@H]2C(=O)NC3(CCCC3)C(=O)N(C)[C@@H](C3CCCC3)C(=O)N(C)[C@H](C(=O)N3CCOCC3)CC(=O)N(C)[C@@H](CC(C)C)C(=O)N[C@@H]([C@@H](C)CC)C(=O)N(C)[C@@H](C)C(=O)N3CC[C@H]3C(=O)N(C)[C@@H](CC3CCCCC3)C(=O)N(C)CC(=O)N[C@@H](CCc3cc(F)c(C(F)(F)F)c(F)c3)C(=O)N2C1 [Compound 1250] ([NMeL]I[NMeA][Aze][NMeCha][Sar][hPhe(3,5-F2-4-CF3)][Hyp](Et)[Ac5c][NMeGly(cPent)][NMeD]-Morpholide; lactam N-11)",0.63,≤ 20
"CC[C@H](C)[C@@H]1NC(=O)[C@H](CC(C)C)N(C)C(=O)C[C@@H](C(=O)N(C)C)N(C)C(=O)[C@H](C2CCCC2)N(C)C(=O)C2(CCCC2)NC(=O)[C@@H]2CCCN2C(=O)[C@H](CCc2cc(F)c(C(F)(F)F)c(F)c2)NC(=O)CN(C)C(=O)[C@H](CC2CCCCC2)N(C)C(=O)[C@@H]2CCN2C(=O)[C@H](C)N(C)C1=O [Compound 1170] ([NMeL]I[NMeA][Aze][NMeCha][Sar][hPhe(3,5-F2-4-CF3)]P[Ac5c][NMeGly(cPent)][NMeD]-NMe2; lactam N-11)",0.54,≤ 20
CCO[C@@H]1C[C@H]2C(=O)NC3(CCCC3)C(=O)N(C)[C@@H](C3CCCC3)C(=O)N(C)[C@H](C(=O)N3CCCC3)CC(=O)N(C)[C@@H](CC(C)C)C(=O)N[C@@H]([C@@H](C)CC)C(=O)N(C)CC(=O)N(C)CC(=O)N(C)[C@@H](CC3CCCCC3)C(=O)N(C)CC(=O)N[C@@H](CCc3ccc(C(F)(F)F)c(Cl)c3)C(=O)N2C1 [Compound 1370] ([NMeL]I[Sar][Sar][NMeCha][Sar][hPhe(3-Cl-4-CF3)][Hyp](Et)[Ac5c][NMeGly(cPent)][NMeD]-Pyrrolidide; lactam N-11),0.6,≤ 20
CC[C@H](C)[C@@H]1NC(=O)[C@H](CC(C)C)N(C)C(=O)C[C@@H](C(=O)N(C)C)N(C)C(=O)[C@H](C2CCCC2)N(C)C(=O)C2(CCCC2)NC(=O)[C@@H]2CCCN2C(=O)[C@H](CCc2ccc(C(F)(F)F)c(Cl)c2)NC(=O)CN(CC)C(=O)[C@H](Cc2ccc(C)cc2)N(C)C(=O)[C@@H]2CCN2C(=O)[C@H](C)N(C)C1=O [Compound 5] ([NMeL]I[NMeA][Aze][NMePhe(4-Me)][NEtG][hPhe(3-Cl-4-CF3)]P[Ac5c][NMeGly(cPent)][NMeD]-NMe2; lactam N-11),0.99,≤ 20
CC[C@H](C)[C@@H]1NC(=O)[C@H](CC2CCCC2)N(C)C(=O)C[C@@H](C(=O)N2CCC2)N(C)C(=O)[C@H](C2CCCC2)N(C)C(=O)C2(CCCC2)NC(=O)[C@@H]2CCCN2C(=O)[C@H](CCc2ccc(C(F)(F)F)c(Cl)c2)NC(=O)CN(C)C(=O)[C@H](CC2CCCCC2)N(C)C(=O)[C@@H]2CCN2C(=O)[C@H](C)N(C)C1=O [Compound 1199] ([NMeAla(cPent)]I[NMeA][Aze][NMeCha][Sar][hPhe(3-Cl-4-CF3)]P[Ac5c][NMeGly(cPent)][NMeD]-{Azetidin(1-yl)}; lactam N-11),0.7,≤ 20
CC[C@H](C)[C@@H]1NC(=O)[C@H](CC(C)C)N(C)C(=O)C[C@@H](C(=O)N2CCCCC2)N(C)C(=O)[C@H](C(C)C)N(C)C(=O)[C@H](C)NC(=O)[C@@H]2CCCN2C(=O)[C@H](CCc2ccc(C(F)(F)F)c(Cl)c2)NC(=O)CN(C)C(=O)[C@H](CC2CCCCC2)N(C)C(=O)[C@@H]2CCN2C(=O)[C@H](C)N(C)C1=O [Compound 1211] ([NMeL]I[NMeA][Aze][NMeCha][Sar][hPhe(3-Cl-4-CF3)]PA[NMeV][NMeD]-Piperidide; lactam N-11),31,> 500
CC[C@H](C)[C@@H]1NC(=O)[C@H](CC(C)C)N(C)C(=O)C[C@@H](C(=O)N2CCCCC2)N(C)C(=O)[C@H](C2CCCCC2)N(C)C(=O)C2(CCCC2)NC(=O)[C@H](Cc2cncc(C)c2)N(C)C(=O)[C@H](CCc2ccc(C(F)(F)F)c(Cl)c2)NC(=O)CN(C)C(=O)[C@H](CC2CCCCC2)N(C)C(=O)CN(C)C(=O)CN(C)C1=O [Compound 1087] ([NMeL]I[Sar][Sar][NMeCha][Sar][hPhe(3-Cl-4-CF3)][X20][Ac5c][NMeChg][NMeD]-Piperidide; lactam N-11),15,> 500
"CC[C@H](C)[C@@H]1NC(=O)[C@H](CC(C)C)N(C)C(=O)C[C@@H](C(=O)N2CCOCC2)N(C)C(=O)[C@H](C2CCCC2)N(C)C(=O)C2(CCCC2)NC(=O)[C@@H]2CCCN2C(=O)[C@H](CCc2cc(F)c(C(F)(F)F)c(F)c2)NC(=O)CN(C)C(=O)[C@H](C2CCCC2)N(C)C(=O)[C@@H]2CCN2C(=O)[C@H](C)N(C)C1=O [Compound 1336] ([NMeL]I[NMeA][Aze][NMeGly(cPent)][Sar][hPhe(3,5-F2-4-CF3)]P[Ac5c][NMeGly(cPent)][NMeD]-Morpholide; lactam N-11)",0.66,≤ 20
